Assay results published in US20240132511A1, “TREATMENTS OF PRADER-WILLI SYNDROME” (Neuren Pharmaceuticals Limited, priority 2021, published 2024).

| melting point [°C] | Structure (SMILES) |
| --- | --- |
| 174 to 177 | C[C@@]12CCCN1C(=O)C1(CCCCC1)NC2=O [Cyclic cyclohexyl-G-2-MeP, (8aS)-Methyl-spiro[cyclohexane-1,3(4H)-tetrahydropyrrolo[1,2-a]pyrazine]-1,4(2H)-dione] |
| 160 to 163 | C[C@@]12CCCN1C(=O)C1(CCCC1)NC2=O [Cyclic cyclopentyl-G-2-MeP, (8aS)-Methyl-spiro[cyclopentane-1,3(4H)-tetrahydropyrrolo[1,2-a]pyrazine]-1,4(2H)-dione] |
